In patent US12414979B2, “Compositions and methods for treating Sjogren's syndrome” (Interlude Biopharma Co., priority 2019, dated 2025):
No end group written: not given here.

Test system: PAR-C10 cells
Assay: Trans-epithelial electrical resistance (TEER) assay of tight junction integrity in PAR-C10 monolayers treated with IFNγ and TNFα
Assay type: cell-based, rat
Conditions: for prevention of cytokine-induced drop in TEER: co-incubation with IFNγ and TNFα, larazotide acetate 1 mM and 5 mM, other compounds 5 mM and 10 mM, FIG. 1-3
Source text: Specifically, an in vitro assay system to measure tight junction integrity was established using PAR-C10 cells, an immortalized rat acinar epithelial cell line, which mimic the biochemical and functional characteristics of primary salivary gland acinar cells. PAR-C10 cells form a monolayer of cuboidal cells, and are attached to each other with well-formed junctional complexes. PAR-C10 cells have been used to model the effect of inflammatory cytokines on tight junctions in vitro. Quissell et al., (1998) In Vitro Cell. Dev. Biol. Anim. 34: 58-67; Baker et al., Am. J. Cell Physiol. 295:C1191-1201. The cells were seeded on permeable supports in 12 well plates and cultured to form monolayers. The trans-epithelial electrical resistance (TEER) across the epithelial monolayer was measured to evaluate formation of tight junction between the cells. Three ng/ml of each pro-inflammatory cytokines, interferon gamma (IFNγ) and tumor necrosis factor alpha (TNFα) were added to the monolayers and incubated for 24 hours in order to cause tight junction disruption. Larazotide acetate (1 mM and 5 mM) or any one of 4-Aminosalicylic acid (4-ASA), 4-Amino-phenyl-acetic acid (4-APAA), and 4-Acetyl amino-phenyl-acetic acid (4-Ac APAA) (5 or 10 mM) of was added to the apical surface and the cells allowed to grow for an additional 24 hours. The compounds were dissolved in dimethyl sulfoxide and added to the culture media to obtain a final concentration of 5 mM and 10 mM each.
TEER measurements were used to determine the effect of larazotide acetate (1 or 5 mM) and other anti-inflammatory compounds (4-Aminosalicylic acid (4-ASA), 4-Amino-phenyl-acetic acid (4-APAA), and 4-Acetyl amino-phenyl-acetic acid (4-Ac APAA)) (5 or 10 mM) on tight junctions, in the presence of cytokines. To determine a therapeutic effect, the cells were pre-treated with cytokines, and the ability of larazotide acetate (1 or 5 mM) or 4-ASA, 4-APAA, and 4-Ac APAA (each at 5 or 10 mM) to reverse junctional disruption was evaluated. Wells not treated with cytokines were used as controls. p values were determined by Kruskal Wallis tests, and adjusted p values were determined by Dunns post test.

Row | Molecule | prevention of cytokine-induced drop in TEER | prevention of cytokine induced disruption of tight junctions (TEER) (5 mM concentration, 2 independent experiments, FIG. 2) | reversal of cytokine-mediated drop in TEER (monolayers incubated with IFNγ and TNFα for 24 hours, then larazotide acetate (1 mM and 5 mM) on apical surface for additional 24 hours, FIG. 4)
1 | Nc1ccc(CC(=O)O)cc1 [4-Amino-phenyl-acetic acid, 4-aminophenylacetic acid] | significantly prevent a drop in TEER | – | –
2 | Nc1ccc(C(=O)O)c(O)c1 [4-Aminosalicylic acid, reference compound] | significantly prevent a drop in TEER | – | –
3 | GGVLVQPG [larazotide acetate] | significantly prevent a drop in TEER | can reproducibly prevent cytokine induced disruption of tight junctions | able to reverse the cytokine-mediated drop in TEER
4 | CC(=O)Nc1ccc(CC(=O)O)cc1 [4-Acetyl amino-phenyl-acetic acid, (4-acetylaminophenyl)-acetic acid, reference compound] | significantly prevent a drop in TEER | – | –
